Source: ChEMBL document CHEMBL3991601, “The target landscape of clinical kinase drugs” (Science, 2017)
Calls of active or inactive are those of the source.

Assays:
[1] = target: Cyclin-dependent kinase 7 (Homo sapiens, UniProt P50613)
[2] = target: Mitogen-activated protein kinase 8 (Homo sapiens, UniProt P45983)
[3] = target: Elongation factor Tu, mitochondrial (Homo sapiens, UniProt P49411)
[4] = target: Protein-tyrosine kinase 6 (Homo sapiens, UniProt Q13882)
[5] = target: Mitogen-activated protein kinase 9 (Homo sapiens, UniProt P45984)
[6] = target: Myosin-10 (Homo sapiens, UniProt P35580)
[7] = target: Protein kinase C alpha type (Homo sapiens, UniProt P17252)
[8] = target: Epithelial discoidin domain-containing receptor 1 (Homo sapiens, UniProt Q08345)
[9] = target: T1, Glycogen phosphorylase, brain form (Homo sapiens, UniProt P11216)
T1 sequence (P11216 whole entry): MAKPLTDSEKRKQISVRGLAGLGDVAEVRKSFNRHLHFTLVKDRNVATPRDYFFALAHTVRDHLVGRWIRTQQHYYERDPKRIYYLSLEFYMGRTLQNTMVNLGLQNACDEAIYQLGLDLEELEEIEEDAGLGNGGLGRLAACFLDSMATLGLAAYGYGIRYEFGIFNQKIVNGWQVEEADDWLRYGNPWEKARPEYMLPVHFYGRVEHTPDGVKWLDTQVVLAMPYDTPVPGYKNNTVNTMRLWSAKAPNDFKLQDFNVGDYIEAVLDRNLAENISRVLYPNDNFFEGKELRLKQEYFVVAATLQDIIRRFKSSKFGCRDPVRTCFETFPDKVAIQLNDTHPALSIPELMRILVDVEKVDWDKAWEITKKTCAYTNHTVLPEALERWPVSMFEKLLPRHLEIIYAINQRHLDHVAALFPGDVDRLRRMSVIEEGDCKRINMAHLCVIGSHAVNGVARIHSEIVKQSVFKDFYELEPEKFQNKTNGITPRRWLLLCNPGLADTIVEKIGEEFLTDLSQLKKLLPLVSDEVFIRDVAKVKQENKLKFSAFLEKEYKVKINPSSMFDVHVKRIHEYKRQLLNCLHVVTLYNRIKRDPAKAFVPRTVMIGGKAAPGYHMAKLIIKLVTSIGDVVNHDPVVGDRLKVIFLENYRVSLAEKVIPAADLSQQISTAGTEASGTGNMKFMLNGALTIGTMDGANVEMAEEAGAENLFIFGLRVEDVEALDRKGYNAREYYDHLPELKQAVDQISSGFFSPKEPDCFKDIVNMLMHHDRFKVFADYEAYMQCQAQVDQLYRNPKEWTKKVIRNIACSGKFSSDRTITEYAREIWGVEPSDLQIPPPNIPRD

[10] = target: PAS domain-containing serine/threonine-protein kinase (Homo sapiens, UniProt Q96RG2)
[11] = target: T2, DNA replication licensing factor MCM4 (Homo sapiens, UniProt P33991)
T2 sequence (P33991 whole entry): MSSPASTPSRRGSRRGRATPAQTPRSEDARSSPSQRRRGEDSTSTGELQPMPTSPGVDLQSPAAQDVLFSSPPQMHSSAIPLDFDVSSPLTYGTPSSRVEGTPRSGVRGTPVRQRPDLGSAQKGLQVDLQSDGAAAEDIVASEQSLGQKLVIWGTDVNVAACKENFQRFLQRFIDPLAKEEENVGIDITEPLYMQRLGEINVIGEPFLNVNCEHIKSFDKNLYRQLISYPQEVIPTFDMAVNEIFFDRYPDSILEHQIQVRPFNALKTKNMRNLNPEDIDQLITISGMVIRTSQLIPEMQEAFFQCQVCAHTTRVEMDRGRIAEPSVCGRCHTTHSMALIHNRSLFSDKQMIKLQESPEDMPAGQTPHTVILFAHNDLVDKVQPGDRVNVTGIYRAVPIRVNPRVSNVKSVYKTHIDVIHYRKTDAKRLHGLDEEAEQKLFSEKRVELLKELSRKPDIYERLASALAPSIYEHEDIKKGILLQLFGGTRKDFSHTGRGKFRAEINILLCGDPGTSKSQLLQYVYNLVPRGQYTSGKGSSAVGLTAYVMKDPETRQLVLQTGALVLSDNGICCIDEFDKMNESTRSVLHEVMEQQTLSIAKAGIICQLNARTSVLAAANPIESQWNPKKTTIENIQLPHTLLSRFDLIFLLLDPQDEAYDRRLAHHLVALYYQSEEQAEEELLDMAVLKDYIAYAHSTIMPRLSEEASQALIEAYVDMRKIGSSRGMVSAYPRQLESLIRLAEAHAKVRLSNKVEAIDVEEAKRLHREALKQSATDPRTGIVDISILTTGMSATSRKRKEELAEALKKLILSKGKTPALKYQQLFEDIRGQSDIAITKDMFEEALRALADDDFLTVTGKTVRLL

[12] = target: GTP-binding protein 4 (Homo sapiens, UniProt Q9BZE4)
Further: in the data inactive means no Kd found up to 30 µM.

Cyclin-dependent kinase 7, sequence (P50613 whole entry): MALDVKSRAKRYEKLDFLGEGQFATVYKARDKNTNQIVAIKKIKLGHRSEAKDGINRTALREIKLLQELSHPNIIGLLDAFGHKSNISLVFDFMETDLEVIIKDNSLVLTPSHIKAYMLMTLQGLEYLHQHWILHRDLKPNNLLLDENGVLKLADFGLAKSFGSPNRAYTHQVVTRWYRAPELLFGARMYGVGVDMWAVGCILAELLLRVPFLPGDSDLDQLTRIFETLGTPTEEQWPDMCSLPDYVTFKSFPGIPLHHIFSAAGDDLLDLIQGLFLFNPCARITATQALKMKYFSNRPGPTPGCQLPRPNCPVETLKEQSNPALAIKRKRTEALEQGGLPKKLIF
Protein-tyrosine kinase 6, sequence (Q13882 whole entry): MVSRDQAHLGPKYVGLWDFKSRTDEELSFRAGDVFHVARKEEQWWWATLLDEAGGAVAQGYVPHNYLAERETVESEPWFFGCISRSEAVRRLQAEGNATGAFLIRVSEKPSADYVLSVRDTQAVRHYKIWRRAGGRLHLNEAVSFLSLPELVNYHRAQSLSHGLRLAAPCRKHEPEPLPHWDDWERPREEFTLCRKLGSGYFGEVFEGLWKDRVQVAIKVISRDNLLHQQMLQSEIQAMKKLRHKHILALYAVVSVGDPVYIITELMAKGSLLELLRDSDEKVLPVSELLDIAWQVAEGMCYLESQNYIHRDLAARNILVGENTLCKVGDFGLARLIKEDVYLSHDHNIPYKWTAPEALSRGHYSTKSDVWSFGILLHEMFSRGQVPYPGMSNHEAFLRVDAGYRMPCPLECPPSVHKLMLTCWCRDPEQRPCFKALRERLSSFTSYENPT
Epithelial discoidin domain-containing receptor 1, sequence (Q08345 whole entry, the tested form may be a part): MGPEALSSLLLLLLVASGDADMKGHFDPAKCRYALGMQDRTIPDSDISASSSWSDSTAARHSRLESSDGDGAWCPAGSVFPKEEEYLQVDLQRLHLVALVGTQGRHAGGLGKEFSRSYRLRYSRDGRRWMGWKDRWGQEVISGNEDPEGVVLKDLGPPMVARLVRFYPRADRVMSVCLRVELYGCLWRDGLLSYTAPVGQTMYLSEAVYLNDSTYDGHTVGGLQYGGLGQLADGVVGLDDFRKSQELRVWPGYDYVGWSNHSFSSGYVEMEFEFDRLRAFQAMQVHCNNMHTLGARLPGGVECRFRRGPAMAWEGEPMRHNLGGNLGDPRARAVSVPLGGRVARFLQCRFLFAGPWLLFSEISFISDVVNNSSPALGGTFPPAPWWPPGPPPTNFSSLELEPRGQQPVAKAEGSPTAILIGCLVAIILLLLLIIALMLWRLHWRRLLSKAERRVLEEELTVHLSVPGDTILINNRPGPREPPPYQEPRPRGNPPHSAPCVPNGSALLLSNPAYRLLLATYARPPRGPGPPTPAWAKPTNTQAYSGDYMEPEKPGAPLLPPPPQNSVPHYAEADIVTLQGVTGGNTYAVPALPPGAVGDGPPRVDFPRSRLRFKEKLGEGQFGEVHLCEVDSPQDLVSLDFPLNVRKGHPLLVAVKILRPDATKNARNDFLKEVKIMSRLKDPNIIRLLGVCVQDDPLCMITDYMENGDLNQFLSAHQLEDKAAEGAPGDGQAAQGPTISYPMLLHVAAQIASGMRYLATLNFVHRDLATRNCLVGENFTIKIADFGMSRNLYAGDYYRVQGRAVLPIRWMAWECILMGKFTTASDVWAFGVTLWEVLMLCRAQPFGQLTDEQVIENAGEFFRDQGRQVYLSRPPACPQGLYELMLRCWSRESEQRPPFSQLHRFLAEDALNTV
Myosin-10, sequence (P35580 whole entry): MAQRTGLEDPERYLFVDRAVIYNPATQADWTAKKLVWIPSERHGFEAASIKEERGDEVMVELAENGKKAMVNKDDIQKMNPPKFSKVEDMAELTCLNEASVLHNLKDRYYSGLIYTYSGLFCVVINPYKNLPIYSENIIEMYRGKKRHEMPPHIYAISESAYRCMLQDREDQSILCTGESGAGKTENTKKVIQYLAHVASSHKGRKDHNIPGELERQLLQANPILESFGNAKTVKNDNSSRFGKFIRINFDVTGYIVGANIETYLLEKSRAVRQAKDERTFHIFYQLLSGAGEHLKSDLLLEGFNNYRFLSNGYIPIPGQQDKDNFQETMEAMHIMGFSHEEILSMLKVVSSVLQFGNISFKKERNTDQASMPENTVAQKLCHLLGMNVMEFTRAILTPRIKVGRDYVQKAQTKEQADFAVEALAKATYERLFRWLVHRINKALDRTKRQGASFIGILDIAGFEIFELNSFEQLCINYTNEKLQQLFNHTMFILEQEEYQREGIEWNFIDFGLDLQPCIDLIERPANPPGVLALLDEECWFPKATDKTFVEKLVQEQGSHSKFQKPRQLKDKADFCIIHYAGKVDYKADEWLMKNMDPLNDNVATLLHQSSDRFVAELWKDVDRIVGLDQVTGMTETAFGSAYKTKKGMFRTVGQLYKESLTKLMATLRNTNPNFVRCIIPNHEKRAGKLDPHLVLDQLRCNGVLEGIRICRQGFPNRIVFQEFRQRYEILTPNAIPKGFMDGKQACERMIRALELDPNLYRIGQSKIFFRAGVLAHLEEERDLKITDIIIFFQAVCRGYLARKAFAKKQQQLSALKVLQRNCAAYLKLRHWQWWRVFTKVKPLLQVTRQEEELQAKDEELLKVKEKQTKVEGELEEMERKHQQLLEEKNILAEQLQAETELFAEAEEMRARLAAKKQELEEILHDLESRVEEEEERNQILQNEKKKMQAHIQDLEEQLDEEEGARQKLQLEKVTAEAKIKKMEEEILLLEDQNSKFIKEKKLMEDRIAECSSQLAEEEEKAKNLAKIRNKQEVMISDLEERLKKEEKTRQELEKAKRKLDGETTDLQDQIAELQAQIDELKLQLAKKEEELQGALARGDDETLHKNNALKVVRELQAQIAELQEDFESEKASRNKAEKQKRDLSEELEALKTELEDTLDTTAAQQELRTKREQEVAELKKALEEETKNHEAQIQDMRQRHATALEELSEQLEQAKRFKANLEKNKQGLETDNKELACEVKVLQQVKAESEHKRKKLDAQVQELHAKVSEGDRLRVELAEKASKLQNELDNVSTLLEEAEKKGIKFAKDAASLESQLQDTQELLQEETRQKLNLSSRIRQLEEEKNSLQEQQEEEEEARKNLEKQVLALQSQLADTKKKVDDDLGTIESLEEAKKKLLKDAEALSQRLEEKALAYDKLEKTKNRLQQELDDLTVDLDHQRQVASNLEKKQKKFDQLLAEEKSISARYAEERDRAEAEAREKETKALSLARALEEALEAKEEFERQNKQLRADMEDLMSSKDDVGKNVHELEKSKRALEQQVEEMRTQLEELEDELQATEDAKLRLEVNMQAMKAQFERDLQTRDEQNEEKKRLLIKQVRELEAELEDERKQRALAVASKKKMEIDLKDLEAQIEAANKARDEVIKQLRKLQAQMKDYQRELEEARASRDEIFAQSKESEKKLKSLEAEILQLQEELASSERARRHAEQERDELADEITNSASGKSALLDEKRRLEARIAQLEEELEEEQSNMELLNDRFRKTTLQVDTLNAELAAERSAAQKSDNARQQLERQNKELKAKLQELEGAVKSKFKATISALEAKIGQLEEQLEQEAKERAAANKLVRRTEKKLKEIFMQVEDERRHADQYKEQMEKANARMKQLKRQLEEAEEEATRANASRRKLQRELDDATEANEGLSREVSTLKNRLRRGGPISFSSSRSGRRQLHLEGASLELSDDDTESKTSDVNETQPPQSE
Mitogen-activated protein kinase 8, sequence (P45983 whole entry): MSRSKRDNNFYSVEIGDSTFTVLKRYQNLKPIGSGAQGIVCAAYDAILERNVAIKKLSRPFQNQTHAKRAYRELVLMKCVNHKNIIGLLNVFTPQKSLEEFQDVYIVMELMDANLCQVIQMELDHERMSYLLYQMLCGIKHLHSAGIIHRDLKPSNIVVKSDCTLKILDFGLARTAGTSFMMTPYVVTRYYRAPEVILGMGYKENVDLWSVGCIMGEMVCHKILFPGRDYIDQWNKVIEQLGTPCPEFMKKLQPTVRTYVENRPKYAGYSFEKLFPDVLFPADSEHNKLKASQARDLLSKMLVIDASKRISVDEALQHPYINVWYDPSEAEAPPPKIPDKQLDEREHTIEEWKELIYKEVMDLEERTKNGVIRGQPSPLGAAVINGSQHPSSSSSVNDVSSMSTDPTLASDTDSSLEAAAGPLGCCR

| SMILES | Kd [1] | Kd [2] | Kd [3] | Kd [4] | Kd [5] | Kd [6] | Kd [7] | Kd [8] | Kd [9] | Kd [10] | Kd [11] | Kd [12] |
| --- | --- | --- | --- | --- | --- | --- | --- | --- | --- | --- | --- | --- |
| C=CC(=O)N1CCC[C@H](n2c(=O)n(-c3ccc(Oc4ccccc4)cc3)c3c(N)ncnc32)C1 | > 30 µM (inactive) | > 30 µM (inactive) | > 30 µM (inactive) | 0.025 µM | > 30 µM (inactive) | > 30 µM (inactive) | > 30 µM (inactive) | > 30 µM (inactive) | > 30 µM (inactive) | > 30 µM (inactive) | > 30 µM (inactive) | > 30 µM (inactive) |
| COCc1c(-c2ccc(NC(=O)Nc3cc(C(F)(F)F)ccc3F)c(F)c2)c2c(N)ncnn2c1CN1CCOCC1 | > 30 µM (inactive) | > 30 µM (inactive) | > 30 µM (inactive) | > 30 µM (inactive) | 1.51 µM (active) | > 30 µM (inactive) | > 30 µM (inactive) | 0.314 µM (active) | > 30 µM (inactive) | > 30 µM (inactive) | > 30 µM (inactive) | > 30 µM (inactive) |
| O=C(Nc1c[nH]nc1-c1nc2cc(CN3CCOCC3)ccc2[nH]1)NC1CC1 [AT-9283] | > 30 µM (inactive) | 0.157 µM (active) | > 30 µM (inactive) | 0.188 µM (active) | 0.509 µM (active) | > 30 µM (inactive) |  |  | > 30 µM (inactive) | > 30 µM (inactive) | > 30 µM (inactive) | > 30 µM (inactive) |
| NC(=O)Nc1cc(-c2cccc(F)c2)sc1C(=O)N[C@H]1CCCNC1 [AZD-7762] | > 30 µM (inactive) | > 30 µM (inactive) | > 30 µM (inactive) | 1.37 µM (active) | > 30 µM (inactive) | > 30 µM (inactive) | > 30 µM (inactive) | > 30 µM (inactive) | > 30 µM (inactive) | > 30 µM (inactive) | > 30 µM (inactive) | > 30 µM (inactive) |
| Cc1cc(C(=O)NOCCO)c(Nc2ccc(I)cc2F)n(C)c1=O [AZD-8330] | > 30 µM (inactive) | > 30 µM (inactive) | > 30 µM (inactive) | > 30 µM (inactive) | > 30 µM (inactive) | > 30 µM (inactive) | > 30 µM (inactive) | > 30 µM (inactive) | > 30 µM (inactive) | > 30 µM (inactive) | > 30 µM (inactive) | > 30 µM (inactive) |
| CC(C)(C)c1nc(-c2cccc(NS(=O)(=O)c3c(F)cccc3F)c2F)c(-c2ccnc(N)n2)s1 [DABRAFENIB] |  | > 30 µM (inactive) | > 30 µM (inactive) | 1.41 µM (active) |  | > 30 µM (inactive) | > 30 µM (inactive) | > 30 µM (inactive) | > 30 µM (inactive) | > 30 µM (inactive) | > 30 µM (inactive) | > 30 µM (inactive) |
| C[C@@H](Oc1cc(-n2cnc3ccc(CN4CCN(C)CC4)cc32)sc1C(N)=O)c1ccccc1C(F)(F)F [GSK-461364] |  |  | > 30 µM (inactive) |  |  | > 30 µM (inactive) | > 30 µM (inactive) |  | > 30 µM (inactive) | > 30 µM (inactive) | > 30 µM (inactive) | > 30 µM (inactive) |
| CCn1cc(-c2ccnc3[nH]c(-c4cccc(CN(C)C)c4)cc23)c(-c2ccc(NC(=O)N(C)C)cc2)n1 [GSK-1070916] | > 30 µM (inactive) |  | > 30 µM (inactive) | 8.19 µM (active) |  | > 30 µM (inactive) | > 30 µM (inactive) | 0.008 µM (active) | > 30 µM (inactive) | > 30 µM (inactive) | > 30 µM (inactive) | > 30 µM (inactive) |
